Activity calls are given as the source filed them. The rule behind the calls is not given here.
Columns and labels:
[1] = Plasma protein binding in human assessed as unbound fraction at 2 uM incubated for 4 hrs by LC/MS/MS based balanced dialysis method
[2] = target: Dual specificity tyrosine-phosphorylation-regulated kinase 3 (Homo sapiens) (UniProt O43781); assay: Inhibition of human DYRK3 assessed as residual activity at 30 uM relative to control
[3] = target: Interleukin-1 receptor-associated kinase 4 (Homo sapiens) (UniProt Q9NWZ3); assay: Inhibition of human IRAK4 assessed as residual activity at 30 uM relative to control
[4] = Toxicity in rat assessed as reduction in body weight at 10 mg/kg/day, po administered via gavage once a day pretreated for 9 weeks prior to co-cage and measured on day 74 relative to control; assay type: organism-based; parameters: scale not given: the % may be the effect or the level left; conditions: in vivo, 1776 h, time 74 day
Mus musculus [5] = assay: Antiarthritic activity in collagen-induced rheumatoid arthritis DBA/1 mouse model assessed as recovery of body weight at 15 mg/kg, po BID administered for 14 days starting from 7 days before immunization to 21 days after immunization and measured on day 22 post immunization; assay type: functional, organism-based; conditions: time 14.0 day
Mus musculus [6] = assay: Antiarthritic activity in collagen-induced rheumatoid arthritis DBA/1 mouse model assessed as reduction in clinical score AUC at 15 mg/kg, po BID administered for 14 days starting from 7 days before immunization to 21 days after immunization and measured on day 41 post immunization; assay type: functional, organism-based; conditions: time 14.0 day
[7] = target: ALK tyrosine kinase receptor (Homo sapiens) (UniProt Q9UM73); assay: Inhibition of human ALK assessed as residual activity at 30 uM relative to control
ALK tyrosine kinase receptor (Homo sapiens), sequence (Q9UM73 19-1620 limits assumed): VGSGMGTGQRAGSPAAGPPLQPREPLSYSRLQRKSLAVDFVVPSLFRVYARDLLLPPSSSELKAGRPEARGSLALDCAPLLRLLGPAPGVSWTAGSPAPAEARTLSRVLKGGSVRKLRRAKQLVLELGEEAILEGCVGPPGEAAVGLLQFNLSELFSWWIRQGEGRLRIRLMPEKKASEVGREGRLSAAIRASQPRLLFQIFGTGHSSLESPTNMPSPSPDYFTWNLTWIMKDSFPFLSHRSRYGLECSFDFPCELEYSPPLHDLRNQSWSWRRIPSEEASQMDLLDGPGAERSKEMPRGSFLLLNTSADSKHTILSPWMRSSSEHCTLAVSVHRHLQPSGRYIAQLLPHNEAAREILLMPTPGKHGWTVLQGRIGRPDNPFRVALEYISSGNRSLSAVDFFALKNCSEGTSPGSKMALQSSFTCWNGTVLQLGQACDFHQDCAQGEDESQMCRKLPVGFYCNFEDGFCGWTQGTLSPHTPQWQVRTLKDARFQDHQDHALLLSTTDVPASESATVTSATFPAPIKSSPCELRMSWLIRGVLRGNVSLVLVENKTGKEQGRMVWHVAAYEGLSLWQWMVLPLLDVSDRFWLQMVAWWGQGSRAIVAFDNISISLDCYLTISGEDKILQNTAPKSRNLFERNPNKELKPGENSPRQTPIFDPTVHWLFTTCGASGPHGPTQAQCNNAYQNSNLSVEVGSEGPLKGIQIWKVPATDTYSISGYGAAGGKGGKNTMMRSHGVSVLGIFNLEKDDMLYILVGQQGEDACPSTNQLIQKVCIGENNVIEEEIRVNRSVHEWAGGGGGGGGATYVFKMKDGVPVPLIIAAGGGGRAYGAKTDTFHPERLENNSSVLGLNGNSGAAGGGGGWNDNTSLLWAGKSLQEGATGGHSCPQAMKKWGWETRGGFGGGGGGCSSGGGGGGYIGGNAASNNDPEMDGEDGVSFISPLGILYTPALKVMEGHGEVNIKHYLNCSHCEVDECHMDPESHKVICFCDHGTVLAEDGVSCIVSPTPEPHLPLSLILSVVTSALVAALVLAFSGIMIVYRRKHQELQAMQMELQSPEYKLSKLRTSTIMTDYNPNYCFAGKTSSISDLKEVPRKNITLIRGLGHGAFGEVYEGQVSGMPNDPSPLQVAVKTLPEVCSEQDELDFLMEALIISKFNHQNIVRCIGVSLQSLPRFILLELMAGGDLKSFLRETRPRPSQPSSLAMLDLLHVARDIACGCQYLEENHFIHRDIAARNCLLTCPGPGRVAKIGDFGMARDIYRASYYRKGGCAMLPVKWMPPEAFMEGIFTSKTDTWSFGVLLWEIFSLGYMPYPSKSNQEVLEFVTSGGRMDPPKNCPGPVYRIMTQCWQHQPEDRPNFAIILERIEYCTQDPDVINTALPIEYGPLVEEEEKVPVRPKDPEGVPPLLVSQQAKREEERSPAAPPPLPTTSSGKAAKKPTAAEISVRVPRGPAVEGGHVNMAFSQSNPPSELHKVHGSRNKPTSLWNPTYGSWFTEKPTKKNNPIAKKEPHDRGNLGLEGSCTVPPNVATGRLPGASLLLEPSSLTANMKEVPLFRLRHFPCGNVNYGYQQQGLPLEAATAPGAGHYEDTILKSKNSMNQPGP

[8] = Microsomal stability in human liver microsomes assessed as intrinsic clearance at 1 uM incubated for 60 mins in presence of NADPH regenerating system by LC-MS/MS analysis; assay type: ADME, Microsome; conditions: read-out: CLH
Rattus norvegicus = assay: Antiarthritic activity in adjuvant-induced arthritis rat model assessed as clinical score at 10 mg/kg, po administered twice a day for 14 days starting from day 13 to 27 post immunization and measured every 3 days a week; assay type: functional; conditions: time 14 day
in vivo [9] = conditions: C57BL/6, mouse, po, 15 mg/kg
in vivo [10] = conditions: C57BL/6, mouse, po, 15 mg/kg; remark: listed apart in the source
Cytochrome P450 2C8 = target: T1, Cytochrome P450 2C8 (Homo sapiens, UniProt P10632); assay: Inhibition of CYP2C8 in human liver microsomes incubated in presence NADPH by LC-MS/MS analysis
T1 sequence (P10632 whole entry): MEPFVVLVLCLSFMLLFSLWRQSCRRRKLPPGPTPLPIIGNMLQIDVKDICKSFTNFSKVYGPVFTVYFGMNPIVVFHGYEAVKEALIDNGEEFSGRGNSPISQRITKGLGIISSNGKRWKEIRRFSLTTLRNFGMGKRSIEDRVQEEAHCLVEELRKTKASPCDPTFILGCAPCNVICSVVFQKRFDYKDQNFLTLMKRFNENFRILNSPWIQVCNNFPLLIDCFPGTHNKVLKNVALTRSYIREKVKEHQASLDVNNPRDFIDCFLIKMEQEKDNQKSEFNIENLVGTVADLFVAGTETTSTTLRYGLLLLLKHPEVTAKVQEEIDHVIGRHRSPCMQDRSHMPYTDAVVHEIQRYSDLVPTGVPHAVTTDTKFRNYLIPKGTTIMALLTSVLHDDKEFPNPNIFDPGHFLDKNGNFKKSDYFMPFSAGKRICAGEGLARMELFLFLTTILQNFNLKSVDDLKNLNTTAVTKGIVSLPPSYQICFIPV

Cytochrome P450 2D6 = Cytochrome P450 2D6 (Homo sapiens, UniProt P10635); assay: Inhibition of CYP2D6 in human liver microsomes incubated in presence NADPH by LC-MS/MS analysis
Cytochrome P450 2D6, sequence (P10635 whole entry): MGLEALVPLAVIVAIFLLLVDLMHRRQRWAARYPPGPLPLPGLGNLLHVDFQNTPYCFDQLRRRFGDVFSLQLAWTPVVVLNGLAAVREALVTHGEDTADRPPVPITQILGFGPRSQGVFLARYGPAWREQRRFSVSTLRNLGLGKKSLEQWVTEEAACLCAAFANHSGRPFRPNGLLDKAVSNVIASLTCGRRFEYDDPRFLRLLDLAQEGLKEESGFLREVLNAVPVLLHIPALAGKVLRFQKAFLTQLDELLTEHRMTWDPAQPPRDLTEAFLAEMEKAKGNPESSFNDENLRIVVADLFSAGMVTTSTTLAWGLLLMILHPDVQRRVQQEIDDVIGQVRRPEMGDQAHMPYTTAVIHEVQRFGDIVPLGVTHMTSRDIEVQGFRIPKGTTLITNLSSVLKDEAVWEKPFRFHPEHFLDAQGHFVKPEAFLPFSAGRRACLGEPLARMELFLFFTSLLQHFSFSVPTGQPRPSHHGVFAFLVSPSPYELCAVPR

[11] = target: Tyrosine-protein kinase JAK1 (Homo sapiens, UniProt P23458); assay: Inhibition of recombinant human JAK1 using MGEEPLYWSFPAKKK as substrate incubated for 40 mins in presence of Mg/ATP mixture by [gamma p33]-ATP based scintillation counting method
Tyrosine-protein kinase JAK1, sequence (P23458 whole entry): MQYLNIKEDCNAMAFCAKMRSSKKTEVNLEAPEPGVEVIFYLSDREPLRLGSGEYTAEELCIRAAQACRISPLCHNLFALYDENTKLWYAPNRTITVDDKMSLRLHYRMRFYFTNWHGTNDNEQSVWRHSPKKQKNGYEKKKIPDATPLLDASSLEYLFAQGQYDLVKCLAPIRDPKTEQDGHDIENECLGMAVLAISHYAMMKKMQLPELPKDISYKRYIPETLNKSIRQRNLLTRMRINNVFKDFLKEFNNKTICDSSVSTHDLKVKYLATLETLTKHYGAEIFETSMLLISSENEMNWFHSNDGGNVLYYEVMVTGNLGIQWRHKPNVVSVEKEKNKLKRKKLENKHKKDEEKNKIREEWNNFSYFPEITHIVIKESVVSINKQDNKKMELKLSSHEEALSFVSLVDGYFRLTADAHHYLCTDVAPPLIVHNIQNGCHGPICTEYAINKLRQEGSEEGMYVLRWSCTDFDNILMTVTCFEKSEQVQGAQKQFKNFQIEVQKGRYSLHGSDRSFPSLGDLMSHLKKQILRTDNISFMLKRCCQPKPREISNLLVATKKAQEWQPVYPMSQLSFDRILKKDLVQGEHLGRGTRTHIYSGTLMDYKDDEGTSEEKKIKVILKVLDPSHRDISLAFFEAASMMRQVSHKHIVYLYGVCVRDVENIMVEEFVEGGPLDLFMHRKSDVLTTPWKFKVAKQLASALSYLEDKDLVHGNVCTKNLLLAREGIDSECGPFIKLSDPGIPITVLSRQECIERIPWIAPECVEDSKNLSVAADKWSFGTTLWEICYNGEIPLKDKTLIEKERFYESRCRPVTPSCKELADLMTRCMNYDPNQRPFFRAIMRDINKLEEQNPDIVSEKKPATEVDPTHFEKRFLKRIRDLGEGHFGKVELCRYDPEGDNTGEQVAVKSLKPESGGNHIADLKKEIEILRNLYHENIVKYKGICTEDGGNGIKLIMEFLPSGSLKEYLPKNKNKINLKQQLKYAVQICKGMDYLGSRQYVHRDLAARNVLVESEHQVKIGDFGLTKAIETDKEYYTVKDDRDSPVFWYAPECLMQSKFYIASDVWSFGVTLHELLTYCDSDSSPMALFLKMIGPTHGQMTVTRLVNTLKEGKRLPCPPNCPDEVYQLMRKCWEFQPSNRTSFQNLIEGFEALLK

[12] = target: T2, Tyrosine-protein kinase JAK3 (Homo sapiens, UniProt P52333); assay: Inhibition of recombinant human JAK3 using GGEEEEYFELVKKKK as substrate incubated for 40 mins in presence of Mg/ATP mixture by [gamma p33]-ATP based scintillation counting method
T2 sequence (P52333 whole entry): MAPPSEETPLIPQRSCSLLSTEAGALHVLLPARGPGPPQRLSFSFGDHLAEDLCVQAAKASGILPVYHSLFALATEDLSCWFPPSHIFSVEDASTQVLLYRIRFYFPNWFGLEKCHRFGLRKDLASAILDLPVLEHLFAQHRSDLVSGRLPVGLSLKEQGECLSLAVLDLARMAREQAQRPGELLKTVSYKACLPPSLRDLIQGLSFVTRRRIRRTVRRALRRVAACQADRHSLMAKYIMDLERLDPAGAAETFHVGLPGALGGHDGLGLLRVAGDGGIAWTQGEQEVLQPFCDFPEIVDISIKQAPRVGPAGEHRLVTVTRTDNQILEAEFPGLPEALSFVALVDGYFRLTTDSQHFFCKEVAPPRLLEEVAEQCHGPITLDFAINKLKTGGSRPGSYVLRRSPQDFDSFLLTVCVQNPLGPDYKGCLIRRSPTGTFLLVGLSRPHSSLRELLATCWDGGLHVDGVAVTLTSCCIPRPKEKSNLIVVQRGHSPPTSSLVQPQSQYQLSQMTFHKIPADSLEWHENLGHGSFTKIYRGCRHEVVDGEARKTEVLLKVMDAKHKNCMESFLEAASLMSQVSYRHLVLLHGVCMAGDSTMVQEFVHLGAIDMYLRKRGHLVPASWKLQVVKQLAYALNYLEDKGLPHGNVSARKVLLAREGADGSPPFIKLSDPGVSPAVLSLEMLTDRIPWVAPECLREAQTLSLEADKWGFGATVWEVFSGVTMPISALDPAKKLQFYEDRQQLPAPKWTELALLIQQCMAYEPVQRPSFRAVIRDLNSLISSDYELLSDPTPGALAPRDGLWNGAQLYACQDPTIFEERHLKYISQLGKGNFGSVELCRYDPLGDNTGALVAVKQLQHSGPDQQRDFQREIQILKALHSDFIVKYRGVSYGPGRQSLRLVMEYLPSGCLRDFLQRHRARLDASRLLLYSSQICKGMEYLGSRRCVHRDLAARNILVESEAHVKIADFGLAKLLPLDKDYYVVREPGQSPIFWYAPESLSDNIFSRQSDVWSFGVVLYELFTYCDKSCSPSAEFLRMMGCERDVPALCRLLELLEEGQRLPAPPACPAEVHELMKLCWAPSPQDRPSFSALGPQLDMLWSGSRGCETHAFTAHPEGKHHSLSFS

[13] = target: Tyrosine-protein kinase JAK2 (Homo sapiens, UniProt O60674); assay: Inhibition of recombinant human JAK2 using KTFCGTPEYLAPEVRREPRILSEEEQEMFRDFDYIADWC as substrate incubated for 40 mins in presence of Mg/ATP mixture by [gamma p33]-ATP based scintillation counting method
Tyrosine-protein kinase JAK2, sequence (O60674 whole entry): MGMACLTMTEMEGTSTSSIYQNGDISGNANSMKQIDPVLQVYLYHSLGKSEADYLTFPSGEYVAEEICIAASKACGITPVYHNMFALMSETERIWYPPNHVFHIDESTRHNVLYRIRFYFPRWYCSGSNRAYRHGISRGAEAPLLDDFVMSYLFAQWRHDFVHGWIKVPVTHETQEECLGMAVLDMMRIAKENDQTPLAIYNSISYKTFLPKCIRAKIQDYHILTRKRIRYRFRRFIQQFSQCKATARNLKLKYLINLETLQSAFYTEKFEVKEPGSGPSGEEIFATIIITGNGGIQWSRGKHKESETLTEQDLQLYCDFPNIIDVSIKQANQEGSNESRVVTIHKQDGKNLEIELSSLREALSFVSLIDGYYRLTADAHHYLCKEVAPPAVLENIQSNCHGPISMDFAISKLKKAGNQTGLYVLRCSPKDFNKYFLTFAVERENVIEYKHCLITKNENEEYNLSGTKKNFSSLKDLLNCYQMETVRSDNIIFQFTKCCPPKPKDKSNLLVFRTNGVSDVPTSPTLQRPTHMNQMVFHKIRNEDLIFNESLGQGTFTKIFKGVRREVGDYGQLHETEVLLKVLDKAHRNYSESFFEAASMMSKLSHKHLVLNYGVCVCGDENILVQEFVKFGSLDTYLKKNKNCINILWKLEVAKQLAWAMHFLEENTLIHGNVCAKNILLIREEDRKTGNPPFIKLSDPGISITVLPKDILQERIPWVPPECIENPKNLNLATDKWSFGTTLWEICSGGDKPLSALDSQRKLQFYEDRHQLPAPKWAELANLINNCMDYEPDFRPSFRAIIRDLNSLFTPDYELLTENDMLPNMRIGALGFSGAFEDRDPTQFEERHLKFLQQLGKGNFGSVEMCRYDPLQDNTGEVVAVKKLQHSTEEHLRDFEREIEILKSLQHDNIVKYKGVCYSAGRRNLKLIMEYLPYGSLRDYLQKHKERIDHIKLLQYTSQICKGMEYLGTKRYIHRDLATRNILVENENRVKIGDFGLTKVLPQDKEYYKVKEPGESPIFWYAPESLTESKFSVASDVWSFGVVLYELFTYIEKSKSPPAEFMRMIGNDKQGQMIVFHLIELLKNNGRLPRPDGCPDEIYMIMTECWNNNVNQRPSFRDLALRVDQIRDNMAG

[14] = AUC in C57BL/6 mouse at 15 mg/kg, po measured for 24 hrs by LC/MS/MS analysis; assay type: ADME, organism-based; parameters: dose 15 mg/kg, time 24 hrs, route po; conditions: in vivo

Dual specificity tyrosine-phosphorylation-regulated kinase 3 (Homo sapiens), sequence (O43781 whole entry): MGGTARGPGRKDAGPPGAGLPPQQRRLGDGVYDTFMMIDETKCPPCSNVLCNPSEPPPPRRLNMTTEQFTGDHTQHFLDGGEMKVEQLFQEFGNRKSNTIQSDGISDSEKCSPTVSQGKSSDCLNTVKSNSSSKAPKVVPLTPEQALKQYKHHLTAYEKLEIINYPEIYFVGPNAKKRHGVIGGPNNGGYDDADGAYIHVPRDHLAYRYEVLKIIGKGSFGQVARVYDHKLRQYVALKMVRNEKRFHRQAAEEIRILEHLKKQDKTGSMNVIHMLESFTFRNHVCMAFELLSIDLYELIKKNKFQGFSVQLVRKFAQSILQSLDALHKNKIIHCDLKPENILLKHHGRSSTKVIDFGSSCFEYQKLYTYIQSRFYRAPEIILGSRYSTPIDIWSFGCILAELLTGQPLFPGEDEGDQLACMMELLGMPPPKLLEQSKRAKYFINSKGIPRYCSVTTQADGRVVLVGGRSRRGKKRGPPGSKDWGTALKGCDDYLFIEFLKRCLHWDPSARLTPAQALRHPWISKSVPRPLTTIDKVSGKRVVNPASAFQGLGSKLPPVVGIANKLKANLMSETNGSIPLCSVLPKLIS

| IC50 (Cytochrome P450 2C8) [nM] | IC50 (Cytochrome P450 2D6) [nM] | IC50 [11] [nM] | IC50 [12] [nM] | IC50 [13] [nM] | SMILES | fraction unbound at 4 h, 2 µM [1] | Activity [2] [%] | Activity [3] [%] | Activity [4] [%] | Activity (Mus musculus [5]) | Activity (Mus musculus [6]) | Activity [7] [%] | microsomal CLint at 1 µM [8] [µL/min/mg] | Activity (Rattus norvegicus) | Cmax at 24 h (in vivo [9]) [µM] | bioavailability at 24 h (in vivo [10]) [%] | AUC at 24 h [14] [µM·h] |
| --- | --- | --- | --- | --- | --- | --- | --- | --- | --- | --- | --- | --- | --- | --- | --- | --- | --- |
|  |  |  |  |  | O=C(Nc1nc2cccc(C3CCC4(CC3)CN(C(=O)[C@@H]3CC3(F)F)C4)n2n1)C1CC1 | 0.176 | 95 | 106 | 4.99 | Active | Active | 101 | < 9.6 | 3.2 |  |  |  |
| > 100000 | > 100000 | 31 | 5760 | 324 | O=C(Nc1nc2cccc(C3CCC4(CC3)CCN(C(=O)[C@@H]3CC3(F)F)C4)n2n1)C1CC1 (stereo partly drawn) | 0.088 |  |  |  |  |  |  | 11.3 |  |  |  |  |
| > 100000 | > 100000 | 3 | 1000 | 40 | O=C(Nc1nc2cccc(C3CCC4(CC3)CCN(C(=O)[C@@H]3CC3(F)F)CC4)n2n1)C1CC1 | 0.056 |  |  |  | Active | Active |  | < 9.6 |  | 7.38 | 50.1 | 18 |

| SMILES | IC50 (Cytochrome P450 2C8) [nM] | IC50 (Cytochrome P450 2D6) [nM] | IC50 [11] [nM] | IC50 [12] [nM] | IC50 [13] [nM] | fraction unbound at 4 h, 2 µM [1] | Activity [2] [%] | Activity [3] [%] | Activity [4] [%] | Activity (Mus musculus [5]) | Activity (Mus musculus [6]) | Activity [7] [%] | microsomal CLint at 1 µM [8] [µL/min/mg] | Activity (Rattus norvegicus) | Cmax at 24 h (in vivo [9]) [µM] | bioavailability at 24 h (in vivo [10]) [%] | AUC at 24 h [14] [µM·h] |
| --- | --- | --- | --- | --- | --- | --- | --- | --- | --- | --- | --- | --- | --- | --- | --- | --- | --- |
| O=C(Nc1nc2cccc([C@H]3CC[C@@H](NC(=O)[C@@H]4CC4(F)F)CC3)n2n1)C1CC1 | > 100000 | > 100000 | 2 | 957 | […] | 0.085 |  |  |  |  |  |  | < 9.6 |  | 25.7 | 66.6 | […] |

Reference: ChEMBL document CHEMBL5150077, “Identification of TUL01101: A Novel Potent and Selective JAK1 Inhibitor for the Treatment of Rheumatoid Arthritis” (J Med Chem, 2022)
